Here are results for 22 compounds from ChEMBL document CHEMBL2169843 (J Med Chem, 2012).

The term Ki denotes a dissociation constant, usually derived from enzyme kinetics or from competition with a known ligand.

The structures appear in SMILES notation.

Sequence of Sigma non-opioid intracellular receptor 1 (Q60492 whole entry): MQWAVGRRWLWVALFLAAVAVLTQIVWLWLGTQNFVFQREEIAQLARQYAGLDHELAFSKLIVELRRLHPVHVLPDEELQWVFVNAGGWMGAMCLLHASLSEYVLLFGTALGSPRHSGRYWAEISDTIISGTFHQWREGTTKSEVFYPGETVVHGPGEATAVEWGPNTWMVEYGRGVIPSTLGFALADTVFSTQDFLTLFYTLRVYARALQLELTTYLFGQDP

The assay addresses Sigma non-opioid intracellular receptor 1 (Cavia porcellus, UniProt Q60492). Nature of the assay: Displacement of [3H]-(+)-pentazocine from sigma-1 receptor in guinea pig brain homogenates. The assay is classed as tissue-based. Background: Displacement assays read how much labelled ligand stays bound in the presence of the test substance.
`NCC[C@@H]1CCO[C@H](c2ccccc2)O1` showed a Ki of over 10000 nM.

The compound `c1ccc(CNCC[C@@H]2CCO[C@H](c3ccccc3)O2)cc1` showed an inhibitory constant (Ki) of 6 nM.

`CC[C@@]1(c2ccccc2)OCC[C@@H](CCN)O1`: the Ki is over 10000 nM.

As for `CC[C@@]1(c2ccccc2)OCC[C@@H](CCNCc2ccccc2)O1`, the affinity, expressed as Ki, was 20 nM.

For the compound `CC[C@]1(c2ccccc2)OCC[C@H](CCNCc2ccccc2)O1`, the Ki is 28 nM.

Regarding `CCC[C@]1(c2ccccc2)OCC[C@H](CCNCc2ccccc2)O1`, the Ki came to 136 nM.

`CCC[C@@]1(c2ccccc2)OCC[C@@H](CCNCc2ccccc2)O1`: affinity was put at a Ki of 72 nM.

On to `CC(C)(C)[C@]1(c2ccccc2)OCC[C@H](CCNCc2ccccc2)O1`, for which the Ki was 253 nM.

Regarding `CC(C)(C)[C@@]1(c2ccccc2)OCC[C@@H](CCNCc2ccccc2)O1`, the Ki was determined as 128 nM.

In turn, `C[C@]1(c2ccccc2)OCC[C@H](CCN)O1` displayed a Ki of over 10000 nM.

As to `C[C@@]1(c2ccccc2)OCC[C@@H](CCN)O1`, the Ki is over 10000 nM.

Take `CC[C@]1(c2ccccc2)OCC[C@H](CCN)O1`: the Ki is over 10000 nM.

Compound `CCC[C@]1(c2ccccc2)OCC[C@H](CCN)O1` gave an inhibition constant (Ki) of over 10000 nM.

`CCC[C@@]1(c2ccccc2)OCC[C@@H](CCN)O1` registered a Ki of over 10000 nM.

In turn, `CC(C)(C)[C@]1(c2ccccc2)OCC[C@H](CCN)O1` yielded a Ki of over 10000 nM.

Compound `CC(C)(C)[C@@]1(c2ccccc2)OCC[C@@H](CCN)O1` registered a Ki of over 10000 nM.

`c1ccc(CNCC[C@H]2CCO[C@@H](c3ccccc3)O2)cc1` had a Ki of 50 nM.

Regarding `C[C@]1(c2ccccc2)OCC[C@H](CCNCc2ccccc2)O1`, the Ki was found to be 11 nM.

With `C[C@@]1(c2ccccc2)OCC[C@@H](CCNCc2ccccc2)O1`, the Ki was determined as 17 nM.

In turn, `NCC[C@H]1CCO[C@@H](c2ccccc2)O1` showed a Ki of over 10000 nM.

Take `NCCC1CCOC(c2ccccc2)O1` (racemic): the Ki was over 10000 nM.

In turn, `CCC1(c2ccccc2)OCCC(CCN)O1` (racemic) returned a Ki of over 10000 nM.
